Assay results reported in patent US10844077B2, “Thiazolyl-containing compounds for treating proliferative diseases” (Dana-Farber Cancer Institute, Inc., priority 2014, dated 2020).
Read-outs that look alike come from different tables or passages of the source.

Assays:
Assay type in all cases: binding
broad panel of kinases [1] = target: broad panel of kinases (Homo sapiens, UniProt O14757); details: CHEK1; 1 μM
broad panel of kinases [2] = target: broad panel of kinases (Homo sapiens, UniProt O15111); details: IKK-alpha; 1 μM
broad panel of kinases [3] = target: broad panel of kinases (Homo sapiens, UniProt O15146); details: MUSK; 1 μM
broad panel of kinases [4] = target: broad panel of kinases (Homo sapiens, UniProt O94806); details: PRKD3; 1 μM
broad panel of kinases [5] = target: broad panel of kinases (Homo sapiens, UniProt P06239); details: LCK; 1 μM
broad panel of kinases [6] = target: broad panel of kinases (Homo sapiens, UniProt P09619); details: PDGFRB; 1 μM
broad panel of kinases [7] = target: broad panel of kinases (Homo sapiens, UniProt P11802); details: 1 μM
broad panel of kinases [8] = target: broad panel of kinases (Homo sapiens, UniProt P21127); details: CDC2L1; 1 μM
broad panel of kinases [9] = target: broad panel of kinases (Homo sapiens, UniProt P21860); details: ERBB3; 1 μM
broad panel of kinases [10] = target: broad panel of kinases (Homo sapiens, UniProt P29323); details: EPHB2; 1 μM
broad panel of kinases [11] = target: broad panel of kinases (Homo sapiens, UniProt P30291); details: WEE1; 1 μM
broad panel of kinases [12] = target: broad panel of kinases (Homo sapiens, UniProt P42336); details: PIK3CA; 1 μM
broad panel of kinases [13] = target: broad panel of kinases (Homo sapiens, UniProt P42336, I800L); details: PIK3CA(I800L); 1 μM
broad panel of kinases [14] = target: broad panel of kinases (Homo sapiens, UniProt P43403); details: ZAP70; 1 μM
broad panel of kinases [15] = target: broad panel of kinases (Homo sapiens, UniProt P46734); details: MEK3; 1 μM
broad panel of kinases [16] = target: broad panel of kinases (Homo sapiens, UniProt P53778); details: p38-gamma; 1 μM
broad panel of kinases [17] = target: broad panel of kinases (Homo sapiens, UniProt P54756); details: EPHA5; 1 μM
broad panel of kinases [18] = target: broad panel of kinases (Homo sapiens, UniProt P54762); details: EPHB1; 1 μM
broad panel of kinases [19] = target: broad panel of kinases (Homo sapiens, UniProt Q07002); details: PCTK3; 1 μM
broad panel of kinases [20] = target: broad panel of kinases (Homo sapiens, UniProt Q08345); details: DDR1; 1 μM
broad panel of kinases [21] = target: broad panel of kinases (Homo sapiens, UniProt Q13164); details: ERK5; 1 μM
broad panel of kinases [22] = target: broad panel of kinases (Homo sapiens, UniProt Q13177); details: PAK2; 1 μM
broad panel of kinases [23] = target: broad panel of kinases (Homo sapiens, UniProt Q13627); details: DYRK1A; 1 μM
broad panel of kinases [24] = target: broad panel of kinases (Homo sapiens, UniProt Q15759); details: p38-beta; 1 μM
broad panel of kinases [25] = target: broad panel of kinases (Homo sapiens, UniProt Q16539); details: p38-alpha; 1 μM
broad panel of kinases [26] = target: broad panel of kinases (Homo sapiens, UniProt Q16566); details: CAMK4; 1 μM
broad panel of kinases [27] = target: broad panel of kinases (Homo sapiens, UniProt Q16816); details: PHKG1; 1 μM
broad panel of kinases [28] = target: broad panel of kinases (Homo sapiens, UniProt Q5VT25); details: MRCKA; 1 μM
broad panel of kinases [29] = target: broad panel of kinases (Homo sapiens, UniProt Q6XUX3); details: RIPK5; 1 μM
broad panel of kinases [30] = target: broad panel of kinases (Homo sapiens, UniProt Q8N752); details: CSNK1A1L; 1 μM
broad panel of kinases [31] = target: broad panel of kinases (Homo sapiens, UniProt Q8TD19); details: NEK9; 1 μM
broad panel of kinases [32] = target: broad panel of kinases (Homo sapiens, UniProt Q96BR1); details: SGK3; 1 μM
broad panel of kinases [33] = target: broad panel of kinases (Homo sapiens, UniProt Q9BWU1); details: CDK11; 1 μM
broad panel of kinases [34] = target: broad panel of kinases (Homo sapiens, UniProt Q9NRP7); details: STK36; 1 μM
broad panel of kinases [35] = target: broad panel of kinases (Homo sapiens, UniProt Q9UBF8); details: PIK4CB; 1 μM
broad panel of kinases [36] = target: broad panel of kinases (Homo sapiens, UniProt Q9UEW8); details: STK39; 1 μM
broad panel of kinases [37] = target: broad panel of kinases (Homo sapiens, UniProt Q9UM73, C1156Y); details: ALK(C1156Y); 1 μM
Chain of broad panel of kinases (Homo sapiens, UniProt Q9UM73, C1156Y) (Q9UM73 19-1620 C1156Y limits assumed): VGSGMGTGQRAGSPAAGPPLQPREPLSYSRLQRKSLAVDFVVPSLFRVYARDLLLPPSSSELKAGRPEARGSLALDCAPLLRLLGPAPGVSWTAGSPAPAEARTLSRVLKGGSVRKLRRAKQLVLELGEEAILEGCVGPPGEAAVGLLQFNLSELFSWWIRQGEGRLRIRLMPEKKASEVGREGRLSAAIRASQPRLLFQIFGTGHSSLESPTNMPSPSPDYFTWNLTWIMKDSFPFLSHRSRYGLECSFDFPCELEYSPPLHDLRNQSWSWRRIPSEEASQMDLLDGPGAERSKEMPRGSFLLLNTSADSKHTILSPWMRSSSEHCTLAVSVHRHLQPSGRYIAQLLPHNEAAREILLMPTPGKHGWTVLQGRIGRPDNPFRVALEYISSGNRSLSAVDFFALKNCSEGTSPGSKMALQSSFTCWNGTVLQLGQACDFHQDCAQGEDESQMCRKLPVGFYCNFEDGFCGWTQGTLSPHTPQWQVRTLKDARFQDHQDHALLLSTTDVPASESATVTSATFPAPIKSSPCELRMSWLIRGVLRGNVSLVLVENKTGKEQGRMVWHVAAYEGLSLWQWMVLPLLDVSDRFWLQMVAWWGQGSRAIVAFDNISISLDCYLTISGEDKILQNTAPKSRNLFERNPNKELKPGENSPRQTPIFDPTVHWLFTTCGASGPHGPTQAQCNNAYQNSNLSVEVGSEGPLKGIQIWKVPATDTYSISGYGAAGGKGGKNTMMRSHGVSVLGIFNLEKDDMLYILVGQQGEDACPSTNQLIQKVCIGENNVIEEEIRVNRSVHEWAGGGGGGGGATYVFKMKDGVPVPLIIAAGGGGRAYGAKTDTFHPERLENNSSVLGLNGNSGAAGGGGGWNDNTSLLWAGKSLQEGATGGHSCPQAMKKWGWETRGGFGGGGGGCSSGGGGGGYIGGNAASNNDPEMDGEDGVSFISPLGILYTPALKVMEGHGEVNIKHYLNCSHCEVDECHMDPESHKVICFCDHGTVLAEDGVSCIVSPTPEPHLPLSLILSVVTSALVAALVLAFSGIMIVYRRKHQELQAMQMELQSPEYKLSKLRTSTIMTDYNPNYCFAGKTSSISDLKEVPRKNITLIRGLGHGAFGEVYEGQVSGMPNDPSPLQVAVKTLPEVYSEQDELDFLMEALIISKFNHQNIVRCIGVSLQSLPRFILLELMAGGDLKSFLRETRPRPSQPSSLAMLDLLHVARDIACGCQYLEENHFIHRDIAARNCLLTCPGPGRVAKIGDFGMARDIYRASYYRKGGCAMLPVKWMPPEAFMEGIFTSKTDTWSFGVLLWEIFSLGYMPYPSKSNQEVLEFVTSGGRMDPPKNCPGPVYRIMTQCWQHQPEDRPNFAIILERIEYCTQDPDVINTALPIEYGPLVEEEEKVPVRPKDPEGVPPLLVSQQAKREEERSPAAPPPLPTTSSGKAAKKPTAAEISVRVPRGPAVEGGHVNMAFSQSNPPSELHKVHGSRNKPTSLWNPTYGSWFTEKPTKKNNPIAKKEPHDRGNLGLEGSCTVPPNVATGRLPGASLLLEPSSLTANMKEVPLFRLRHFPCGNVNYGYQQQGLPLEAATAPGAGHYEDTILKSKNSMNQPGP

Chain of broad panel of kinases (Homo sapiens, UniProt P11802) (P11802 2-303 limits assumed): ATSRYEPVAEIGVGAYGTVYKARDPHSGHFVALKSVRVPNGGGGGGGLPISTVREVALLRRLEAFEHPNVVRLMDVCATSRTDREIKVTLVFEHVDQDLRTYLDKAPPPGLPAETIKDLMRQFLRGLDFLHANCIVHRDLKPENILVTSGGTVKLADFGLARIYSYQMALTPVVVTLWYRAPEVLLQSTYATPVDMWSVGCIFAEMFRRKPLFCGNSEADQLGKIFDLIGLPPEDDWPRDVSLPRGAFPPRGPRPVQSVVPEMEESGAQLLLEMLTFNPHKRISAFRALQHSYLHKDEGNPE
Chain of broad panel of kinases (Homo sapiens, UniProt P29323) (P29323 19-1055 limits assumed): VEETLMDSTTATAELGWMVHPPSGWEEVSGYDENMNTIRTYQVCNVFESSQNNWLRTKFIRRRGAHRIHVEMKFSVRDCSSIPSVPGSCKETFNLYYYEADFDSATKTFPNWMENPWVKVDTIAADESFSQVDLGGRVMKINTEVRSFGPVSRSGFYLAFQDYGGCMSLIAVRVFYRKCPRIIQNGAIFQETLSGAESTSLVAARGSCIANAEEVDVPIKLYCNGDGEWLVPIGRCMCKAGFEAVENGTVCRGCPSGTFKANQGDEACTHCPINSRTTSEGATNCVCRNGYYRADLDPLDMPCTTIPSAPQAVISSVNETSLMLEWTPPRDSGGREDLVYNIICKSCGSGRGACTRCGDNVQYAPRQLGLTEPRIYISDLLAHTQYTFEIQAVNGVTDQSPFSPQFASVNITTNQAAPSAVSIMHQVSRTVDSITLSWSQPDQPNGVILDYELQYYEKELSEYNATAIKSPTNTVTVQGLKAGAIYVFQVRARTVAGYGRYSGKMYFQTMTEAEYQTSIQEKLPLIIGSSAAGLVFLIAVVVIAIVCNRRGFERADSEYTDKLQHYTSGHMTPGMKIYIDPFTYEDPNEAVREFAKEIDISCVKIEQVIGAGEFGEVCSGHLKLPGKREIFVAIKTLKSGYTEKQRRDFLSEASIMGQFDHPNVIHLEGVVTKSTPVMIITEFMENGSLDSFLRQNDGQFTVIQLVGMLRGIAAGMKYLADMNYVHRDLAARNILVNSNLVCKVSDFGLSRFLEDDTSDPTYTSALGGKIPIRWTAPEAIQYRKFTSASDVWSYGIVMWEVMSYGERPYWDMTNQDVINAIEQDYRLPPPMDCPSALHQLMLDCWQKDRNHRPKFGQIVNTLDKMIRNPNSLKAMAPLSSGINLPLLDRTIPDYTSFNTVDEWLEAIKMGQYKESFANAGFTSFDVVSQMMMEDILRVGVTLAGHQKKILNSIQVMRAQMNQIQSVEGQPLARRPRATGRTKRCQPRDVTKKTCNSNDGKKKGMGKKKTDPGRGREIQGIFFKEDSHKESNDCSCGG
Chain of broad panel of kinases (Homo sapiens, UniProt Q13164) (Q13164 2-816 limits assumed): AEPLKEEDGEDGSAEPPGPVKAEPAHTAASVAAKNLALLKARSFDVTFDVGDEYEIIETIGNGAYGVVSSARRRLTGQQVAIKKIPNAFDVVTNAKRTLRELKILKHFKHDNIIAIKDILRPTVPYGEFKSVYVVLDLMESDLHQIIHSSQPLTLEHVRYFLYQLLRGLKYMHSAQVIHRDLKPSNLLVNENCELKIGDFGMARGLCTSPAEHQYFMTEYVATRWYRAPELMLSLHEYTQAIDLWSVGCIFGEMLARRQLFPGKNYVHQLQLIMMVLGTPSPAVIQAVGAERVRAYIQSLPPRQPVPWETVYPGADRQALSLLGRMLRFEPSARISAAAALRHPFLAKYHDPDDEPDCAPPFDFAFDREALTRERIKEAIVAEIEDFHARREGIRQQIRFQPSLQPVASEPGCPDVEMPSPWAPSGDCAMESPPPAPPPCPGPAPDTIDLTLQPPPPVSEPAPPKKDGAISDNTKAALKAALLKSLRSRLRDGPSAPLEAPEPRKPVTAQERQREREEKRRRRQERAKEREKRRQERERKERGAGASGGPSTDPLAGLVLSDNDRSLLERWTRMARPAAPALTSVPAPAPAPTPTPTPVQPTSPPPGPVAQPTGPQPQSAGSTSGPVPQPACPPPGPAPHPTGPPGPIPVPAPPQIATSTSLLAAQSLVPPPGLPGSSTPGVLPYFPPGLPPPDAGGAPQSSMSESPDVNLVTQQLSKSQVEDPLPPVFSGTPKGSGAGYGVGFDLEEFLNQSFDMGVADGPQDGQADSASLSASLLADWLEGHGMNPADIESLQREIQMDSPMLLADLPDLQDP
Chain of broad panel of kinases (Homo sapiens, UniProt P54756) (P54756 25-1037 limits assumed): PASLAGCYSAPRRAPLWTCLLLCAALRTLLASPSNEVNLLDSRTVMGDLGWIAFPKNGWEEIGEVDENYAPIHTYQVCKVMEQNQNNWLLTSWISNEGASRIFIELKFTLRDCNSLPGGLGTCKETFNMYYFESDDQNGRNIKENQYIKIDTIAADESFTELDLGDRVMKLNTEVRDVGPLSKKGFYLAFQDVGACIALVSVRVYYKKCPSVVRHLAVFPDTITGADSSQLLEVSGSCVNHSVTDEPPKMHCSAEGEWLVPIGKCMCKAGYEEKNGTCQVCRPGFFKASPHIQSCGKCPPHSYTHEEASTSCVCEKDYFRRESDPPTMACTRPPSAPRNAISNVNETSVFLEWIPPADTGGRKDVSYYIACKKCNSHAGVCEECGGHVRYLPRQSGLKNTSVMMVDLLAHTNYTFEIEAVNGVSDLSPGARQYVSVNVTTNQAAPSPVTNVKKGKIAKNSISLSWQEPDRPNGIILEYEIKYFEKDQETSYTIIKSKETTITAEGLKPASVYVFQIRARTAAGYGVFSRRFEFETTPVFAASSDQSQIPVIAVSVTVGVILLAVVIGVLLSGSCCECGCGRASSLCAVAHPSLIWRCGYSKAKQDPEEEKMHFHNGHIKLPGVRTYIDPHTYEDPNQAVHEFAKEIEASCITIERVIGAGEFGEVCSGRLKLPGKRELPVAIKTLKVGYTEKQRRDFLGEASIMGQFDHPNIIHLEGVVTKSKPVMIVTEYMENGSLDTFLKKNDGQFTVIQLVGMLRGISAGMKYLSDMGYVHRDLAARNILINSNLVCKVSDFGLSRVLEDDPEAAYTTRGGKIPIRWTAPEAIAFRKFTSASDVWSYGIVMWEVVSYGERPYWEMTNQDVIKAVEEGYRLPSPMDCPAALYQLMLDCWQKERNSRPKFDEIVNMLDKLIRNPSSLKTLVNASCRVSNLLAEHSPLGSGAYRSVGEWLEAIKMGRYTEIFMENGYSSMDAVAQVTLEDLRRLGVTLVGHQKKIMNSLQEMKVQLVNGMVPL

SMILES: C=CC(=O)N1CC[C@H](Nc2nc(CN3CCOCC3)cc(Nc3ncc(C(=O)Nc4c(C)cccc4C)s3)n2)C1 [Example I-2]
- percent of control binding remaining (lower = stronger binding) (broad panel of kinases [1]): 88%
- percent of control binding remaining (lower = stronger binding) (broad panel of kinases [2]): 93%
- percent of control binding remaining (lower = stronger binding) (broad panel of kinases [3]): 98%
- percent of control binding remaining (lower = stronger binding) (broad panel of kinases [4]): 81%
- percent of control binding remaining (lower = stronger binding) (broad panel of kinases [5]): 0.65%
- percent of control binding remaining (lower = stronger binding) (broad panel of kinases [6]): 0%
- percent of control binding remaining (lower = stronger binding) (broad panel of kinases [7]; CDK4-cyclinD1): 96%
- percent of control binding remaining (lower = stronger binding) (broad panel of kinases [7]; CDK4-cyclinD3): 94%
- percent of control binding remaining (lower = stronger binding) (broad panel of kinases [8]): 88%
- percent of control binding remaining (lower = stronger binding) (broad panel of kinases [9]): 0.1%
- percent of control binding remaining (lower = stronger binding) (broad panel of kinases [10]): 0%
- percent of control binding remaining (lower = stronger binding) (broad panel of kinases [11]): 93%
- percent of control binding remaining (lower = stronger binding) (broad panel of kinases [12]): 100%
- percent of control binding remaining (lower = stronger binding) (broad panel of kinases [13]): 76%
- percent of control binding remaining (lower = stronger binding) (broad panel of kinases [14]): 99%
- percent of control binding remaining (lower = stronger binding) (broad panel of kinases [15]): 99%
- percent of control binding remaining (lower = stronger binding) (broad panel of kinases [16]): 100%
- percent of control binding remaining (lower = stronger binding) (broad panel of kinases [17]): 0.95%
- percent of control binding remaining (lower = stronger binding) (broad panel of kinases [18]): 0.35%
- percent of control binding remaining (lower = stronger binding) (broad panel of kinases [19]): 99%
- percent of control binding remaining (lower = stronger binding) (broad panel of kinases [20]): 0.2%
- percent of control binding remaining (lower = stronger binding) (broad panel of kinases [21]): 91%
- percent of control binding remaining (lower = stronger binding) (broad panel of kinases [22]): 92%
- percent of control binding remaining (lower = stronger binding) (broad panel of kinases [23]): 100%
- percent of control binding remaining (lower = stronger binding) (broad panel of kinases [24]): 62%
- percent of control binding remaining (lower = stronger binding) (broad panel of kinases [25]): 0.1%
- percent of control binding remaining (lower = stronger binding) (broad panel of kinases [26]): 96%
- percent of control binding remaining (lower = stronger binding) (broad panel of kinases [27]): 100%
- percent of control binding remaining (lower = stronger binding) (broad panel of kinases [28]): 65%
- percent of control binding remaining (lower = stronger binding) (broad panel of kinases [29]): 100%
- percent of control binding remaining (lower = stronger binding) (broad panel of kinases [30]): 100%
- percent of control binding remaining (lower = stronger binding) (broad panel of kinases [31]): 100%
- percent of control binding remaining (lower = stronger binding) (broad panel of kinases [32]): 100%
- percent of control binding remaining (lower = stronger binding) (broad panel of kinases [33]): 98%
- percent of control binding remaining (lower = stronger binding) (broad panel of kinases [34]): 3.5%
- percent of control binding remaining (lower = stronger binding) (broad panel of kinases [35]): 100%
- percent of control binding remaining (lower = stronger binding) (broad panel of kinases [36]): 92%
- percent of control binding remaining (lower = stronger binding) (broad panel of kinases [37]): 94%

SMILES: C=CC(=O)N1CC[C@H](Nc2nccc(Nc3ncc(C(=O)Nc4c(C)cccc4C)s3)n2)C1 [Example I-3]
- percent of control binding remaining (lower = stronger binding) (broad panel of kinases [1]): 84%
- percent of control binding remaining (lower = stronger binding) (broad panel of kinases [2]): 100%
- percent of control binding remaining (lower = stronger binding) (broad panel of kinases [3]): 100%
- percent of control binding remaining (lower = stronger binding) (broad panel of kinases [4]): 81%
- % change compared to control (broad panel of kinases [5]): 0.55%
- % change compared to control (broad panel of kinases [6]): 0%
- percent of control binding remaining (lower = stronger binding) (broad panel of kinases [7]; CDK4-cyclinD1): 99%
- percent of control binding remaining (lower = stronger binding) (broad panel of kinases [7]; CDK4-cyclinD3): 95%
- percent of control binding remaining (lower = stronger binding) (broad panel of kinases [8]): 78%
- percent of control binding remaining (lower = stronger binding) (broad panel of kinases [9]): 0.8%
- percent of control binding remaining (lower = stronger binding) (broad panel of kinases [10]): 0%
- percent of control binding remaining (lower = stronger binding) (broad panel of kinases [11]): 100%
- percent of control binding remaining (lower = stronger binding) (broad panel of kinases [12]): 100%
- percent of control binding remaining (lower = stronger binding) (broad panel of kinases [13]): 89%
- percent of control binding remaining (lower = stronger binding) (broad panel of kinases [14]): 100%
- percent of control binding remaining (lower = stronger binding) (broad panel of kinases [15]): 100%
- percent of control binding remaining (lower = stronger binding) (broad panel of kinases [16]): 100%
- percent of control binding remaining (lower = stronger binding) (broad panel of kinases [17]): 0.85%
- percent of control binding remaining (lower = stronger binding) (broad panel of kinases [18]): 0.2%
- percent of control binding remaining (lower = stronger binding) (broad panel of kinases [19]): 92%
- percent of control binding remaining (lower = stronger binding) (broad panel of kinases [20]): 0.15%
- percent of control binding remaining (lower = stronger binding) (broad panel of kinases [21]): 90%
- percent of control binding remaining (lower = stronger binding) (broad panel of kinases [22]): 93%
- percent of control binding remaining (lower = stronger binding) (broad panel of kinases [23]): 100%
- percent of control binding remaining (lower = stronger binding) (broad panel of kinases [24]): 63%
- percent of control binding remaining (lower = stronger binding) (broad panel of kinases [25]): 0.2%
- percent of control binding remaining (lower = stronger binding) (broad panel of kinases [26]): 84%
- percent of control binding remaining (lower = stronger binding) (broad panel of kinases [27]): 99%
- percent of control binding remaining (lower = stronger binding) (broad panel of kinases [28]): 88%
- percent of control binding remaining (lower = stronger binding) (broad panel of kinases [29]): 86%
- percent of control binding remaining (lower = stronger binding) (broad panel of kinases [30]): 95%
- percent of control binding remaining (lower = stronger binding) (broad panel of kinases [31]): 100%
- percent of control binding remaining (lower = stronger binding) (broad panel of kinases [32]): 100%
- percent of control binding remaining (lower = stronger binding) (broad panel of kinases [33]): 83%
- percent of control binding remaining (lower = stronger binding) (broad panel of kinases [34]): 25%
- percent of control binding remaining (lower = stronger binding) (broad panel of kinases [35]): 36%
- percent of control binding remaining (lower = stronger binding) (broad panel of kinases [36]): 71%
- percent of control binding remaining (lower = stronger binding) (broad panel of kinases [37]): 84%
